Molecules are shown by their SMILES.

What all share (assay type): cell-based
For test [1], the system named is HCC1937 (primary ductal breast carcinoma cell line). Kind of test: Cytotoxic activity, cell proliferation (ATPLite) on HCC1937 line. Particulars: Homo sapiens, 48 hours after treatment. On the procedure:
(§1) Culture of Lines and Measurement of Cell Viability:
(§2) The lines NIE115 (ATCC, CRL2263), MDA-MB-231 (ATCC, HTB26) and HSC-1 (Health Science Research Resources Bank, JCRB1015) were cultured in DMEM medium (Dulbecco's modified Eagle medium) supplemented with 2 mM of L-Glutamine (Sigma, G7513) and 10% foetal calf serum (Hyclone, SH30109.03) or 20% for the HSC-1 cells. The HCC-1937 (ATCC, CRL2336) and A549 (ATCC, CCL185) lines were cultured in RPMI medium (Roswell Park Memorial Institute medium) supplemented with 10% foetal calf serum and 2 mM of L-Glutamine. Finally, the SCC114 line (DSMZ, ACC662) was cultured in MEM medium (Minimum Essential Medium Eagle) supplemented with 10% foetal calf serum and 2 mM of L-Glutamine. Initially, in 96-well plates (Perkin Elmer, 6005668), the cells were seeded in their respective culture media with 750 cells per well for NIE115; 1000 cells per well for SCC114 and A549; 2000 cells per well for HCC-1937 and HSC-1; 2500 cells per well for MDA-MB-231. Cascade dilution of each compound was performed in dimethylsulfoxide (DMSO) (Sigma, D8418) using 10 mM stock solutions in 100% DMSO. Each of the dilutions was added to the cells 24 hours after seeding. Under these conditions the final solvent concentration was 0.1% DMSO. Reading of cell proliferation was conducted 72 hours after addition of products with the ATPLite kit (Perkin Elmer, 6016947) and following the manufacturer's directions except in the case of the HCC-1937 line for which this reading was carried out 48 hours after treatment. Analysis of proliferation results was performed by comparing with conditions in which solely the vehicle was added to the cells. The dose-response curves obtained were analysed using Prism 4.03 software (GraphPad Software Inc.) to determine the concentration of each compound allowing 50% inhibition of cell proliferation (IC50). As examples, the cytotoxic properties of some compounds of the invention evaluated on the lines A549 (lung cancer cell line), MDA-MB-231 (mammary adenocarcinoma cell line), NIE115 (mouse brain neuroblastoma cell line), HCC-1937 1 (primary ductal breast carcinoma cell line), HSC-1 (cutaneous squamous carcinoma cell line) and SCC114 (oral squamous carcinoma cell line) are reported in Table 1, as compared with griseofulvin used as control product. The concentration values are expressed in micromolar units (μM).
The activity of the compounds of the invention on the […] line was compared with that of known cytotoxics (Epotilone B and Vinflunine).
(In general: In ATP-based viability assays light output follows the ATP content of the culture.)

For test [2], the system named is SCC114 (oral squamous carcinoma cell line). Briefly: Cytotoxic activity, cell proliferation (ATPLite) on SCC114 line. The following applies: 50% inhibition of cell proliferation, 72 hours after addition. The method, then:
as §1, §2

Test [3] has as its system A549 (lung cancer cell line). Kind of test: Cytotoxic activity, cell proliferation (ATPLite) on A549 line. Particulars: Homo sapiens, 50% inhibition of cell proliferation, 72 hours after addition. The method, then: as §1
as §2, with “Analysis of proliferation results was performed by comparing with conditions in which solely the vehicle was added to the cells. The dose-response curves obtained were analysed using Prism 4.03 software (GraphPad Software Inc.) to determine the concentration of each compound allowing 50% inhibition of cell proliferation (IC50).” left out, “The concentration values are expressed in micromolar units (μM).” left out

Test [4] relates to MDA-MB-231 (mammary adenocarcinoma cell line). Kind of test: Cytotoxic activity, cell proliferation (ATPLite) on MDA-MB-231 line. Particulars: Homo sapiens, 50% inhibition of cell proliferation, 72 hours after addition. The method, then:
as §1
as §2, with “Analysis of proliferation results was performed by comparing with conditions in which solely the vehicle was added to the cells. The dose-response curves obtained were analysed using Prism 4.03 software (GraphPad Software Inc.) to determine the concentration of each compound allowing 50% inhibition of cell proliferation (IC50).” left out, “The concentration values are expressed in micromolar units (μM).” left out

The test system of test [5] is N1E-115 (mouse brain neuroblastoma cell line). Briefly: Cytotoxic activity, cell proliferation (ATPLite) on N1E-115 line. The following applies: 50% inhibition of cell proliferation, 72 hours after addition. The method, then:
as §1
as §2, with “Analysis of proliferation results was performed by comparing with conditions in which solely the vehicle was added to the cells. The dose-response curves obtained were analysed using Prism 4.03 software (GraphPad Software Inc.) to determine the concentration of each compound allowing 50% inhibition of cell proliferation (IC50).” left out, “The concentration values are expressed in micromolar units (μM).” left out

For test [6], the system named is HSC-1 (cutaneous squamous carcinoma cell line). Kind of test: Cytotoxic activity, cell proliferation (ATPLite) on HSC-1 line. The following applies: 50% inhibition of cell proliferation, 72 hours after addition. On the procedure: as §1
The lines NIE115 (ATCC, CRL2263), MDA-MB-231 (ATCC, HTB26) and HSC-1 (Health Science Research Resources Bank, JCRB1015) were cultured in DMEM medium (Dulbecco's modified Eagle medium) supplemented with 2 mM of L-Glutamine (Sigma, G7513) and 10% foetal calf serum (Hyclone, SH30109.03) or 20% for the HSC-1 cells. The HCC-1937 (ATCC, CRL2336) and A549 (ATCC, CCL185) lines were cultured in RPMI medium (Roswell Park Memorial Institute medium) supplemented with 10% foetal calf serum and 2 mM of L-Glutamine. […] Reading of cell proliferation was conducted 72 hours after addition of products with the ATPLite kit (Perkin Elmer, 6016947) and following the manufacturer's directions except in the case of the HCC-1937 line for which this reading was carried out 48 hours after treatment. […] As examples, the cytotoxic properties of some compounds of the invention evaluated on the lines A549 (lung cancer cell line), MDA-MB-231 (mammary adenocarcinoma cell line), NIE115 (mouse brain neuroblastoma cell line), HCC-1937 1 (primary ductal breast carcinoma cell line), HSC-1 (cutaneous squamous carcinoma cell line) and SCC114 (oral squamous carcinoma cell line) are reported in Table 1, as compared with griseofulvin used as control product. […]

The mark [7] stands for this setting: Table 2, comparison with known cytotoxics and 2′-SR7 compounds.
[8] abbreviates: Table 1, 50% inhibition of cell proliferation.

One may read the IC50 as the point on the concentration scale where inhibition reaches its midpoint. `COc1cc(OC)c2c(c1Cl)O[C@]1(C2=O)C(SCCN(C)C)=CC(=O)C[C@H]1C` (racemic) [B, reference compound] registered an IC50 in test [1] (setting [7]) above 10 µM.

On to `COc1cc(OC)c2c(c1Cl)OC1(C2=O)C(SCc2ccccc2)=CC(=O)C[C@H]1C` (some centres unmarked) [A, reference compound], for which the IC50 in test [1] (setting [7]) is above 10 µM.

Take `COc1cc(OC)c2c(c1Cl)O[C@@]1(C=C([S+]([O-])c3ccccc3)C(=O)C[C@H]1C)C2=O` (some centres unmarked) [Compound 95]: the half-maximal inhibitory concentration (IC50) in test [2] amounted to 0.25 µM; in test [3], 0.25 µM; in test [4], 0.54 µM; in test [1] (setting [8]), 0.43 µM; in test [5], 1 µM.

For `COc1cc(OC)c2c(c1Cl)O[C@@]1(C=C(S(=O)(=O)Cc3ccccc3)C(=O)C[C@H]1C)C2=O` [Compound 96, (1′S,6′R)-3′-(benzylsulfonyl)-7-chloro-4,6-dimethoxy-6′-methyl-3H-spiro[benzofuran-2,1′-cyclohex[2]ene]-3,4′-dione], the IC50 in test [1] (setting [8]) was found to be 0.92 µM.

`COc1cc(OC)c2c(c1Cl)O[C@@]1(C=C([S+]([O-])Cc3ccccc3)C(=O)C[C@H]1C)C2=O` (stereo partly drawn) [Compound 97, (1′S,6′R)-3′-(benzylsulfinyl)-7-chloro-4,6-dimethoxy-6′-methyl-3H-spiro[benzofuran-2,1′-cyclohex[2]ene]-3,4′-dione] gave a half-maximal inhibitory concentration (IC50) in test [2] of 0.021 µM.

Consider `COc1cc(OC)c2c(c1Cl)O[C@@]1(C=C(S(=O)(=O)c3ccccc3)C(=O)C[C@H]1C)C2=O` [Compound 98, (1′S,6′R)-7-chloro-4,6-dimethoxy-6′-methyl-3′-(phenylsulfonyl)-3H-spiro[benzofuran-2,1′-cyclohex[2]ene]-3,4′-dione], for which the results for the IC50 in test [2] and in test [1] (setting [8]) were 0.41 µM and 0.7 µM, respectively.

On to `COc1cc(OC)c2c(c1Cl)O[C@]1(C2=O)C(S(=O)(=O)Cc2ccccc2)=CC(=O)C[C@H]1C` [Compound 145, (1′R,6′R)-2′-(benzylsulfonyl)-7-chloro-4,6-dimethoxy-6′-methyl-3H-spiro[benzofuran-2,1′-cyclohex[2]ene]-3,4′-dione], for which the IC50 is 0.385 µM in test [2]; 1.5 µM in test [3]; 2 µM in test [4]; 1.4 µM in test [1] (setting [8]); 3 µM in test [5].

Turning to `COc1cc(OC)c2c(c1Cl)O[C@]1(C2=O)C(S(=O)(=O)CCN(C)C)=CC(=O)C[C@H]1C` [Compound 146, (1′R,6′R)-7-chloro-2′-(2-(dimethylamino)ethylsulfonyl)-4,6-dimethoxy-6′-methyl-3H-spiro[benzofuran-2,1′-cyclohex[2]ene]-3,4′-dione], the midpoint of inhibition in test [1] (setting [8]), the IC50, lay at 5.9 µM. This counts as single-digit micromolar.

Take `COc1cc(OC)c2c(c1Cl)O[C@]1(C2=O)C(S(=O)(=O)c2ccccc2)=CC(=O)C[C@H]1C` [Compound 147, (1′R,6′R)-7-chloro-4,6-dimethoxy-6′-methyl-2′-(phenylsulfonyl)-3H-spiro[benzofuran-2,1′-cyclohex[2]ene]-3,4′-dione]: in test [1] (setting [8]), the IC50 is 1.6 µM.

Regarding `C/C(=C\c1csc(C)n1)[C@@H]1C[C@@H]2O[C@]2(C)CCC[C@H](C)[C@H](O)[C@@H](C)C(=O)C(C)(C)[C@@H](O)CC(=O)O1` [Epotilone B, reference compound], the half-inhibitory concentration (IC50) in test [1] (setting [7]) was above 10 µM.

On to `COC1=CC(=O)C[C@@H](C)[C@]12Oc1c(Cl)c(OC)cc(OC)c1C2=O` [Griseofulvin], for which the IC50 in test [2] was 6.4 µM; in test [3], above 10 µM; in test [6], above 10 µM; in test [4], above 10 µM; in test [1] (setting [8]), above 10 µM; in test [5], above 10 µM.

The compound `CC[C@]12C=CCN3CC[C@@]4(c5cc([C@@]6(C(=O)OC)C[C@@H]7C[C@@H](C(C)(F)F)CN(Cc8c6[nH]c6ccccc86)C7)c(OC)cc5N(C)[C@H]4[C@@](O)(C(=O)OC)[C@@H]1OC(C)=O)[C@@H]32` [Vinflunine, reference compound] had an IC50 in test [1] (setting [7]) above 10 µM.

The values are drawn from patent US9416142B2, “Griseofulvin derivatives” (PIERRE FABRE MEDICAMENT, priority 2012, dated 2016).
